Measurements reported in publication PMC12090182, “Repurposing of the RIPK1-Selective Benzo[1,4]oxazepin-4-one Scaffold for the Development of a Type III LIMK1/2 Inhibitor” (ACS Chemical Biology, 2025).

How the values were obtained:
Test in all cases: biochemical
Assay type in all cases: binding
[1] = target: 468 kinases including some pathogenic mutants (Homo sapiens, UniProt O00750); conditions: PIK3C2B (Entrez PIK3C2B), 1000 nM; read-out: Percent Control
[2] = target: 468 kinases including some pathogenic mutants (Homo sapiens, UniProt O15146); conditions: MUSK (Entrez MUSK), 100 nM; read-out: Percent Control
[3] = target: 468 kinases including some pathogenic mutants (Homo sapiens, UniProt O15197); conditions: EPHB6 (Entrez EPHB6), 100 nM; read-out: Percent Control
[4] = target: 468 kinases including some pathogenic mutants (Homo sapiens, UniProt P00519, T315I); conditions: read-out: Percent Control
[5] = target: 468 kinases including some pathogenic mutants (Homo sapiens, UniProt P09619); conditions: PDGFRB (Entrez PDGFRB), 100 nM; read-out: Percent Control
[6] = target: 468 kinases including some pathogenic mutants (Homo sapiens, UniProt P10721, T670I/V559D); conditions: read-out: Percent Control
[7] = target: 468 kinases including some pathogenic mutants (Homo sapiens, UniProt P14616); conditions: INSRR (Entrez INSRR), 100 nM; read-out: Percent Control
[8] = target: 468 kinases including some pathogenic mutants (Homo sapiens, UniProt P21709); conditions: EPHA1 (Entrez EPHA1), 100 nM; read-out: Percent Control
[9] = target: 468 kinases including some pathogenic mutants (Homo sapiens, UniProt P36894); conditions: BMPR1A (Entrez BMPR1A), 100 nM; read-out: Percent Control
[10] = target: 468 kinases including some pathogenic mutants (Homo sapiens, UniProt P42336); conditions: PIK3CA (Entrez PIK3CA), 100 nM; read-out: Percent Control
[11] = target: 468 kinases including some pathogenic mutants (Homo sapiens, UniProt P42336, C420R); conditions: read-out: Percent Control
[12] = target: 468 kinases including some pathogenic mutants (Homo sapiens, UniProt P42336, E542K); conditions: read-out: Percent Control
[13] = target: 468 kinases including some pathogenic mutants (Homo sapiens, UniProt P42336, Q546K); conditions: read-out: Percent Control
[14] = target: 468 kinases including some pathogenic mutants (Homo sapiens, UniProt P45983); conditions: JNK1 (Entrez MAPK8), 1000 nM; read-out: Percent Control
[15] = target: 468 kinases including some pathogenic mutants (Homo sapiens, UniProt P53350); conditions: PLK1 (Entrez PLK1), 100 nM; read-out: Percent Control
[16] = target: 468 kinases including some pathogenic mutants (Homo sapiens, UniProt P80192); conditions: MLK1 (Entrez MAP3K9), 1000 nM; read-out: Percent Control
[17] = target: 468 kinases including some pathogenic mutants (Homo sapiens, UniProt Q00536); conditions: PCTK1 (Entrez CDK16), 1000 nM; read-out: Percent Control
[18] = target: 468 kinases including some pathogenic mutants (Homo sapiens, UniProt Q13043); conditions: MST1 (Entrez STK4), 100 nM; read-out: Percent Control
[19] = target: 468 kinases including some pathogenic mutants (Homo sapiens, UniProt Q13237); conditions: PRKG2 (Entrez PRKG2), 100 nM; read-out: Percent Control
[20] = target: 468 kinases including some pathogenic mutants (Homo sapiens, UniProt Q15831); conditions: LKB1 (Entrez STK11), 100 nM; read-out: Percent Control
[21] = target: 468 kinases including some pathogenic mutants (Homo sapiens, UniProt Q16620); conditions: TRKB (Entrez NTRK2), 100 nM; read-out: Percent Control
[22] = target: 468 kinases including some pathogenic mutants (Homo sapiens, UniProt Q86Y07); conditions: VRK2 (Entrez VRK2), 1000 nM; read-out: Percent Control
[23] = target: 468 kinases including some pathogenic mutants (Homo sapiens, UniProt Q8N4C8); conditions: MINK (Entrez MINK1), 100 nM; read-out: Percent Control
[24] = target: 468 kinases including some pathogenic mutants (Homo sapiens, UniProt Q8N568); conditions: DCAMKL2 (Entrez DCLK2), 100 nM; read-out: Percent Control
[25] = target: 468 kinases including some pathogenic mutants (Homo sapiens, UniProt Q8N752); conditions: CSNK1A1L (Entrez CSNK1A1L), 100 nM; read-out: Percent Control
[26] = target: 468 kinases including some pathogenic mutants (Homo sapiens, UniProt Q8TD19); conditions: NEK9 (Entrez NEK9), 100 nM; read-out: Percent Control
[27] = target: 468 kinases including some pathogenic mutants (Homo sapiens, UniProt Q96NX5); conditions: CAMK1G (Entrez CAMK1G), 100 nM; read-out: Percent Control
[28] = target: 468 kinases including some pathogenic mutants (Homo sapiens, UniProt Q9NYL2); conditions: ZAK (Entrez ZAK), 1000 nM; read-out: Percent Control
[29] = target: 468 kinases including some pathogenic mutants (Homo sapiens, UniProt Q9UBE8); conditions: NLK (Entrez NLK), 100 nM; read-out: Percent Control

Sequence of 468 kinases including some pathogenic mutants (Homo sapiens, UniProt P14616) (P14616 27-1297, stated change not applied): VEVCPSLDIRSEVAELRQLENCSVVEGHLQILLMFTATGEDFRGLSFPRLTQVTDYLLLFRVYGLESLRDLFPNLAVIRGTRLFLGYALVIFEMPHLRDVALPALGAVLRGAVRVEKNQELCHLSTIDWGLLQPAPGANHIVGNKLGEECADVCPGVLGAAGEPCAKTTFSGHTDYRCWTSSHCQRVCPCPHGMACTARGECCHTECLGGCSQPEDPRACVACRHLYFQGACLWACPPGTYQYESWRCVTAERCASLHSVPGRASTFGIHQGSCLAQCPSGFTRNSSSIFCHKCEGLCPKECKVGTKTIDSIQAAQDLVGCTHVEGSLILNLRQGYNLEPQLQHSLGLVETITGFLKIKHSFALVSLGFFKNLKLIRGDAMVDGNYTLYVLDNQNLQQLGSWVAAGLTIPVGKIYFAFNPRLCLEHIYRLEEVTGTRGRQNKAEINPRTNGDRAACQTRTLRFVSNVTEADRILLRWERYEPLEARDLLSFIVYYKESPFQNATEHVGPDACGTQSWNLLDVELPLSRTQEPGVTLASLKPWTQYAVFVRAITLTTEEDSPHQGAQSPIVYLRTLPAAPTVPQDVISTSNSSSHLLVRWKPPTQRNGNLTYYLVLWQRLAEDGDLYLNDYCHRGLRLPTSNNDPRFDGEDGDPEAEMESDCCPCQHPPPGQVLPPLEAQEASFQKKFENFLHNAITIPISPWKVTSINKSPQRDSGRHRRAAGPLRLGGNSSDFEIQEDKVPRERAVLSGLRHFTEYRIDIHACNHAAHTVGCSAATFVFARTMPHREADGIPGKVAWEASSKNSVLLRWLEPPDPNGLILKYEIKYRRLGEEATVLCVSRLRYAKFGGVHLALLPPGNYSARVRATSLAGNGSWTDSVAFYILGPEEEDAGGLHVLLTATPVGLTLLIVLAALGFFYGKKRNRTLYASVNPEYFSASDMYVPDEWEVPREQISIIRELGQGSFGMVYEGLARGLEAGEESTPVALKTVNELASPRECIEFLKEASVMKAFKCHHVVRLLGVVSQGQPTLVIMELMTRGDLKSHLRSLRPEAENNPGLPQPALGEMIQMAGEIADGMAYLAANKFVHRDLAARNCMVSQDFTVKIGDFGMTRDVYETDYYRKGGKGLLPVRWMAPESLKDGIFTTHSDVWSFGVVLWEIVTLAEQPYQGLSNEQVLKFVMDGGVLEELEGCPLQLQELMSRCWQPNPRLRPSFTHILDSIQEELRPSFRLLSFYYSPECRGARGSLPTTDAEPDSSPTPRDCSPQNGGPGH
Sequence of 468 kinases including some pathogenic mutants (Homo sapiens, UniProt O15146) (O15146 24-869, change not shown): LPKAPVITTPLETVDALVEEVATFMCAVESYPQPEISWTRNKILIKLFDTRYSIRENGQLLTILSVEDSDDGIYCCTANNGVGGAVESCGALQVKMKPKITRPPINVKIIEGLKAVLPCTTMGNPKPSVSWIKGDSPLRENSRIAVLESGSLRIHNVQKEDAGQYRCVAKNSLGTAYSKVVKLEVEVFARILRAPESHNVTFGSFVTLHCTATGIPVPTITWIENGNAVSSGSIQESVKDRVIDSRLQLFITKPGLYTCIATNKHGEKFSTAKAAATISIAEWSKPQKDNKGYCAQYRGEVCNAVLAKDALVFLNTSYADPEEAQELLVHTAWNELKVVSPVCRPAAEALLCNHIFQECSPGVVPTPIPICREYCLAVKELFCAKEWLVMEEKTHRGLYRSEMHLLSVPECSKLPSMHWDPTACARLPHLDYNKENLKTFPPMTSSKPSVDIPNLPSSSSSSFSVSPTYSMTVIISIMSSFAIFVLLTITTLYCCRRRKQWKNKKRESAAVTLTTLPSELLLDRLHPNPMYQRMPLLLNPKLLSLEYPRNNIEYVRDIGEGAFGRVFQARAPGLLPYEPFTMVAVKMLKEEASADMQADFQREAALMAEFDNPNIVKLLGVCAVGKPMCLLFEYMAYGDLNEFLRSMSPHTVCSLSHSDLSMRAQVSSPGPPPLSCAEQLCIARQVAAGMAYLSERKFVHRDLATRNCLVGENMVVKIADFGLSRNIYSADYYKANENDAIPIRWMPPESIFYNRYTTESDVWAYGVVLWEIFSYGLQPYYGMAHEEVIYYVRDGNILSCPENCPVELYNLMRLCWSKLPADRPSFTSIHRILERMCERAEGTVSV
Sequence of 468 kinases including some pathogenic mutants (Homo sapiens, UniProt Q15831) (Q15831 whole entry, change not shown): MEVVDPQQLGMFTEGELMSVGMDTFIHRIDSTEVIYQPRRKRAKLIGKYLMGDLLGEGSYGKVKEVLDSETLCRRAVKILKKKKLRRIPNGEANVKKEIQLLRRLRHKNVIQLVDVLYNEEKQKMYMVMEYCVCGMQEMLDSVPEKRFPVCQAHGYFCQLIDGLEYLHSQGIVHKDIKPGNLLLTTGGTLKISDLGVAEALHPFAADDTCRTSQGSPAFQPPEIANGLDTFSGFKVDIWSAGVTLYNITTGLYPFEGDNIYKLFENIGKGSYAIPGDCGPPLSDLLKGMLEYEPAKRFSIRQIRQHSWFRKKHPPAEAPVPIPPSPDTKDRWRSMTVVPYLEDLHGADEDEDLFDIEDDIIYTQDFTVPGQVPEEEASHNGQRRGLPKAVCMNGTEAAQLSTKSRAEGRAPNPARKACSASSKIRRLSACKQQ
Sequence of 468 kinases including some pathogenic mutants (Homo sapiens, UniProt Q8N4C8) (Q8N4C8 whole entry, change not shown): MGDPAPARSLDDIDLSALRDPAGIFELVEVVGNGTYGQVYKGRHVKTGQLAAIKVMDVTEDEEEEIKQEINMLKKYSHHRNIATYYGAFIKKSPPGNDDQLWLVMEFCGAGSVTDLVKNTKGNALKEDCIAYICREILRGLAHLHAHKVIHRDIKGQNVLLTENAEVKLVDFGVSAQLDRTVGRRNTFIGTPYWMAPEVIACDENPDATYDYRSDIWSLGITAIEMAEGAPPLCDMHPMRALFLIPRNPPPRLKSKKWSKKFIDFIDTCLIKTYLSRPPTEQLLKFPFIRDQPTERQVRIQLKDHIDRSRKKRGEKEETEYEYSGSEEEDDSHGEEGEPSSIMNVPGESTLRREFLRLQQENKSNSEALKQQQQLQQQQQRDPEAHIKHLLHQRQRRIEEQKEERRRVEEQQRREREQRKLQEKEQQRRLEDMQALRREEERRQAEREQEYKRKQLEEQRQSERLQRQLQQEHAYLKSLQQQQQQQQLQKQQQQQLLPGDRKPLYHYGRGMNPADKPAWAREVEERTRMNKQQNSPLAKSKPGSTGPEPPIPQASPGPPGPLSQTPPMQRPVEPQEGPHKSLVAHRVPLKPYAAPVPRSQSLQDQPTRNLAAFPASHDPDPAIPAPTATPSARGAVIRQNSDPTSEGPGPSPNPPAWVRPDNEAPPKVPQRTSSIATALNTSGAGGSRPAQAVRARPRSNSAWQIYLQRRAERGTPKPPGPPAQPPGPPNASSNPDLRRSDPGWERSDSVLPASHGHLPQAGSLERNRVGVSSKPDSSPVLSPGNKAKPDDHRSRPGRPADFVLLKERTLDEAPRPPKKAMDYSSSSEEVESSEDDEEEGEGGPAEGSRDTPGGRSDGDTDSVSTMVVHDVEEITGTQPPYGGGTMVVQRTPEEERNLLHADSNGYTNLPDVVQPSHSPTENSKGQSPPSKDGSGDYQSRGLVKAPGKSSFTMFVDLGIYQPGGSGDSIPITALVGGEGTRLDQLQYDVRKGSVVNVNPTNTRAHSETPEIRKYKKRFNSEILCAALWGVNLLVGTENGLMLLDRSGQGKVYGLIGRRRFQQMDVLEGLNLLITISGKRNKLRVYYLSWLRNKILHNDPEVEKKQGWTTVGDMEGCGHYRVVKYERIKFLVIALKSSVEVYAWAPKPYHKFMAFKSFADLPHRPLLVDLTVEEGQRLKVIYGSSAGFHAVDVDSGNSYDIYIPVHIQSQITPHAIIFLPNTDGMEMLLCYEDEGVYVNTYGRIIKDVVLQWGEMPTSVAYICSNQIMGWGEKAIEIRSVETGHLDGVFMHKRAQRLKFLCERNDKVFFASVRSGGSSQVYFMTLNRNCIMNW
Sequence of 468 kinases including some pathogenic mutants (Homo sapiens, UniProt Q16620) (Q16620 32-822, change not shown): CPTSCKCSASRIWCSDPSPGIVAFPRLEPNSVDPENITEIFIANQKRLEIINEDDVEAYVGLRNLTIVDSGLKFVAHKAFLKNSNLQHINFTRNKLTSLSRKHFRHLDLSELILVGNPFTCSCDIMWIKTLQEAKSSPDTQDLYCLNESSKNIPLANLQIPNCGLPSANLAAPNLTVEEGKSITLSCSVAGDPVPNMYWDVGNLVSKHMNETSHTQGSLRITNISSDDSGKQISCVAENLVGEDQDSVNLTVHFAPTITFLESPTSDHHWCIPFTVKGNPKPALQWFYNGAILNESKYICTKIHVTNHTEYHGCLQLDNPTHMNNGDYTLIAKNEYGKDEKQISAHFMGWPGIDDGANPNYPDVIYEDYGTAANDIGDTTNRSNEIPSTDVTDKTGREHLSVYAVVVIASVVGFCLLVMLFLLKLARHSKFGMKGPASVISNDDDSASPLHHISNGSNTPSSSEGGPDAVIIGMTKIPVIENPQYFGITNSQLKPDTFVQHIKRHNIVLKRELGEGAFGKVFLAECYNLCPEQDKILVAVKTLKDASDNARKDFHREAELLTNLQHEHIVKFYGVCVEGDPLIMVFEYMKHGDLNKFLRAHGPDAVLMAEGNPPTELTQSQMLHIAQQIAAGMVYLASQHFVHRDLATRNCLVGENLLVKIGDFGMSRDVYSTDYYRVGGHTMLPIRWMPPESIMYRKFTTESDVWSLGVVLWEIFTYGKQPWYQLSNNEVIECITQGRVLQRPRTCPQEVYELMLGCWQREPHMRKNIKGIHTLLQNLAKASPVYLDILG
Sequence of 468 kinases including some pathogenic mutants (Homo sapiens, UniProt P45983) (P45983 whole entry, change not shown): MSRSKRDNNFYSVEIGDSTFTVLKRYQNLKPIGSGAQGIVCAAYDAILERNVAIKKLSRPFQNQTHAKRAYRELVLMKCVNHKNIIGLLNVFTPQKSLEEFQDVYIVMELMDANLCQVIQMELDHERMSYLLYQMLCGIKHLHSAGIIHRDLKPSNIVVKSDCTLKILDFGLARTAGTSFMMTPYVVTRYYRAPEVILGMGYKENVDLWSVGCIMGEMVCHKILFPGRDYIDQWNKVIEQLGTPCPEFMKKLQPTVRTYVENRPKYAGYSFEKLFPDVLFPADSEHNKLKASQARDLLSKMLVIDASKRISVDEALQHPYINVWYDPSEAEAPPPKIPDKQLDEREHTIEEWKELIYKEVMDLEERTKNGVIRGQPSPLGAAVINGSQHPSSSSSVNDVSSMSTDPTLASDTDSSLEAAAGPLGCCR

CN1C(=O)[C@@H](N2CCc3c(nn(Cc4ccccc4)c3C(N)=O)C2=O)COc2cc(Cl)ccc21 [Compound 10, (S)-2-benzyl-6-(8-chloro-5-methyl-4-oxo-2,3,4,5-tetrahydrobenzo[b][1,4]oxazepin-3-yl)-7-oxo-4,5,6,7-tetrahydro-2H-pyrazolo[3,4-c]pyridine-3-carboxamide]
remaining activity at 1 µM [1]: 100%
remaining activity at 0.1 µM [2]: 94%
remaining activity at 0.1 µM [3]: 91%
remaining activity at 0.1 µM [4]: 100%
remaining activity at 0.1 µM [5]: 69%
remaining activity at 1 µM [6]: 100%
remaining activity at 0.1 µM [7]: 68%
remaining activity at 0.1 µM [8]: 91%
remaining activity at 0.1 µM [9]: 78%
remaining activity at 0.1 µM [10]: 71%
remaining activity at 0.1 µM [11]: 88%
remaining activity at 0.1 µM [12]: 62%
remaining activity at 0.1 µM [13]: 76%
remaining activity at 1 µM [14]: 100%
remaining activity at 0.1 µM [15]: 68%
remaining activity at 1 µM [16]: 100%
remaining activity at 1 µM [17]: 100%
remaining activity at 0.1 µM [18]: 58%
remaining activity at 0.1 µM [19]: 77%
remaining activity at 0.1 µM [20]: 97%
remaining activity at 0.1 µM [21]: 88%
remaining activity at 1 µM [22]: 100%
remaining activity at 0.1 µM [23]: 94%
remaining activity at 0.1 µM [24]: 100%
remaining activity at 0.1 µM [25]: 86%
remaining activity at 0.1 µM [26]: 88%
remaining activity at 0.1 µM [27]: 72%
remaining activity at 1 µM [28]: 100%
remaining activity at 0.1 µM [29]: 91%
